Structures can show the parent of a compound that is named as a salt.
Target: T1, mouse semaphorin 3A (Sema3A) (Mus musculus, UniProt O08665)
T1 sequence (O08665 21-772): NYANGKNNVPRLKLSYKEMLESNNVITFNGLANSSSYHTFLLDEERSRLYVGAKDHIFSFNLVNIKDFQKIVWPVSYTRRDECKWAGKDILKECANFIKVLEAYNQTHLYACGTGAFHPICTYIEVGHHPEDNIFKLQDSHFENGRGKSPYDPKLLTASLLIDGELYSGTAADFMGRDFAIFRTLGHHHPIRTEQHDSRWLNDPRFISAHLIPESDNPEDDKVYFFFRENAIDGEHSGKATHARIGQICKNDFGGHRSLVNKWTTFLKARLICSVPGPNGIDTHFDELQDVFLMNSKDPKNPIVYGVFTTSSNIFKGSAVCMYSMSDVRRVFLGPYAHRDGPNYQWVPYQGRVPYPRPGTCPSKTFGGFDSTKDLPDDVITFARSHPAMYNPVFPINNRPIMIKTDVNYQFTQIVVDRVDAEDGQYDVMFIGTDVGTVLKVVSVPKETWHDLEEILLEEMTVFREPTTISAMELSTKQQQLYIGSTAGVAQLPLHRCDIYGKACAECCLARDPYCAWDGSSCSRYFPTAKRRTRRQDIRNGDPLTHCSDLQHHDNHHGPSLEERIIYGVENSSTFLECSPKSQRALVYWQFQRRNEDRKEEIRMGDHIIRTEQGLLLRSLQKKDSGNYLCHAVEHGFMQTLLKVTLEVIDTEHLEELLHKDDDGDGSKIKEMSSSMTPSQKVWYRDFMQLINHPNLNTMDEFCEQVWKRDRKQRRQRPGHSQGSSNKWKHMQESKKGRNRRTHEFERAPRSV
Test: Inhibitory activity for the collapse activity caused by Sema3A (growth cone collapse assay, Test 1)
Type: cell-based
Details: chick embryo dorsal root ganglion, 3 units/mL mouse Sema3A, smaller value = more potent inhibition, read-out: residual ratio (%) of Sema3A activity (collapse assay); for remaining activity at 1 µM: 1 μM test compound; for remaining activity at 3 µM: 3 μM test compound; for remaining activity at 10 µM: 10 μM test compound
Procedure: Inhibitory Activity for the Collapse Activity Caused by Sema3A
96 well-plate (SUMITOMO BAKELITE CO., LTD.) which was beforehand coated with polylysine was further coated with laminin (10 μL laminin, at room temperature, for 1 hour). To each well was added 100 μL of a medium (F12 medium containing 10% fetal bovine serum, 20 ng/mL NGF, 100 unit/mL penicillin, and 100 μg/mL streptomycin). Dorsal root ganglion harvested from 7-8 day-old chick embryo was inoculated thereto, and the culture medium was cultivated under the condition of 5% CO2 and 37° C. for 16-20 hours. And then, each test compound in various concentrations was added to the medium, each test medium was cultivated for 30 minutes, 3 units/mL mouse semaphorin 3A (Sema3A) was added to each medium, and then each test medium was cultivated for more 30 minutes. Then, glutaraldehyde was added to the medium, in which the final concentration of glutaraldehyde was 1%. The medium was left to stand at room temperature for 15 minutes to make the tissue fragment fixed, and the ratio of the retracted growth cone was measured under a microscope.

Structure (SMILES)	remaining activity at 1 µM [%]	remaining activity at 3 µM [%]	remaining activity at 10 µM [%]
Cn1cc(-c2coc3cc(O)c(O)c(C(=O)O)c3c2=O)c(=O)c2cc(O)c(O)cc21 [Example 1, 3-(6,7-Dihydroxy-1-methyl-4-oxo-1,4-dihydroquinolin-3-yl)-6,7-dihydroxy-4-oxo-4H-chromene-5-carboxylic acid]	2	4.6	–
Cn1cc(-c2coc3cc(O)c(O)c(C(=O)OCc4cn(CC(=O)N[C@@H](CCCNC(=N)N)C(=O)O)nn4)c3c2=O)c(=O)c2cc(O)c(O)cc21 [Example 4, N^2-({4-[({[3-(6,7-Dihydroxy-1-methyl-4-oxo-1,4-dihydroquinolin-3-yl)-6,7-dihydroxy-4-oxo-4H-chromen-5-yl]carbonyl}oxy)methyl]-1H-1,2,3-triazol-1-yl}acetyl)-L-arginine trifluoroacetate]	6	–	–
Cn1cc(-c2coc3cc(O)c(O)c(C(=O)N[C@@H](CCC(=O)O)C(=O)O)c3c2=O)c(=O)c2cc(O)c(O)cc21 [Example 5, N-{[3-(6,7-Dihydroxy-1-methyl-4-oxo-1,4-dihydroquinolin-3-yl)-6,7-dihydroxy-4-oxo-4H-chromen-5-yl]carbonyl}-L-glutamic acid]	5.1	3.3	–
Cc1c(-c2coc3cc(O)c(O)c(C(=O)O)c3c2=O)c(=O)c2cc(O)c(O)cc2n1C [Example 7, 3-(6,7-Dihydroxy-1,2-dimethyl-4-oxo-1,4-dihydroquinolin-3-yl)-6,7-dihydroxy-4-oxo-4H-chromene-5-carboxylic acid]	–	< 70	< 40
Cc1c(-c2coc3cc(O)c(O)c(C(=O)OCc4cn(CC(=O)N[C@@H](CCC(=O)O)C(=O)O)nn4)c3c2=O)c(=O)c2cc(O)c(O)cc2n1C [Example 8, N-({4-[({[3-(6,7-Dihydroxy-1,2-dimethyl-4-oxo-1,4-dihydroquinolin-3-yl)-6,7-dihydroxy-4-oxo-4H-chromen-5-yl]carbonyl}oxy)methyl]-1H-1,2,3-triazol-1-yl}acetyl)-L-glutamic acid]	27.3	21	–
O=C(O)c1c(O)c(O)cc2occ(-c3cc4cc(O)c(O)cc4oc3=O)c(=O)c12 [Example 9, 6,6′,7,7′-Tetrahydroxy-2,4′-dioxo-2H,4′H-3,3′-bichromene-5′-carboxylic acid]	3.4	7.3	–
O=C(O)CC[C@H](NC(=O)Cn1cc(COC(=O)c2c(O)c(O)cc3occ(-c4cc5cc(O)c(O)cc5oc4=O)c(=O)c23)nn1)C(=O)O [Example 11, N-{[4-({[(6,6′,7,7′-Tetrahydroxy-2,4′-dioxo-2H,4′H-3,3′-bichromen-5′-yl)carbonyl]oxy}methyl)-1H-1,2,3-triazol-1-yl]acetyl}-L-glutamic acid]	7.9	–	–
N=C(N)NCCC[C@H](NC(=O)Cn1cc(COC(=O)c2c(O)c(O)cc3occ(-c4cc5cc(O)c(O)cc5oc4=O)c(=O)c23)nn1)C(=O)O [Example 12, N^2-{[4-({[(6,6′,7,7′-Tetrahydroxy-2,4′-dioxo-2H,4′H-3,3′-bichromen-5′-yl)carbonyl]oxy}methyl)-1H-1,2,3-triazol-1-yl]acetyl}-L-arginine trifluoroacetate]	65.5	–	–
Cn1c(=O)c(-c2coc3cc(O)c(O)c(C(=O)O)c3c2=O)cc2cc(O)c(O)cc21 [Example 13, 3-(6,7-Dihydroxy-1-methyl-2-oxo-1,2-dihydroquinolin-3-yl)-6,7-dihydroxy-4-oxo-4H-chromene-5-carboxylic acid]	–	–	< 70
Cn1c(=O)c(-c2coc3cc(O)c(O)c(C(=O)OCc4cn(CC(=O)N[C@@H](CCC(=O)O)C(=O)O)nn4)c3c2=O)cc2cc(O)c(O)cc21 [Example 14, N-({4-[({[3-(6,7-Dihydroxy-1-methyl-2-oxo-1,2-dihydroquinolin-3-yl)-6,7-dihydroxy-4-oxo-4H-chromen-5-yl]carbonyl}oxy)methyl]-1H-1,2,3-triazol-1-yl}acetyl)-L-glutamic acid]	78.8	6.1	–
Cc1c(-c2coc3cc(O)c(O)c(C(=O)OCc4cn(CC(=O)N[C@@H](CCC(=O)O)C(=O)O)nn4)c3c2=O)c(=O)n(C)c2cc(O)c(O)cc12 [Example 15, N-({4-[({[3-(6,7-Dihydroxy-1,4-dimethyl-2-oxo-1,2-dihydroquinolin-3-yl)-6,7-dihydroxy-4-oxo-4H-chromen-5-yl]carbonyl}oxy)methyl]-1H-1,2,3-triazol-1-yl}acetyl)-L-glutamic acid]	5.4	0	–
Cc1nc2cc(O)c(O)cn2c(=O)c1-c1coc2cc(O)c(O)c(C(=O)O)c2c1=O [Example 16, 3-(7,8-Dihydroxy-2-methyl-4-oxo-4H-pyrido[1,2-a]pyrimidin-3-yl)-6,7-dihydroxy-4-oxo-4H-chromene-5-carboxylic acid]	15.9	2.2	–
Cc1nc2cc(O)c(O)cn2c(=O)c1-c1coc2cc(O)c(O)c(C(=O)OCc3cn(CC(=O)N[C@@H](CCC(=O)O)C(=O)O)nn3)c2c1=O [Example 17, N-({4-[({[3-(7,8-Dihydroxy-2-methyl-4-oxo-4H-pyrido[1,2-a]pyrimidin-3-yl)-6,7-dihydroxy-4-oxo-4H-chromen-5-yl]carbonyl}oxy)methyl]-1H-1,2,3-triazol-1-yl}acetyl)-L-glutamic acid]	90.1	3.3	–
Cc1nc2cc(O)c(O)cn2c(=O)c1-c1coc2cc(O)c(O)c(C(=O)OCC(=O)N[C@@H](CCC(=O)O)C(=O)O)c2c1=O [Example 18, N-[({[3-(7,8-Dihydroxy-2-methyl-4-oxo-4H-pyrido[1,2-a]pyrimidin-3-yl)-6,7-dihydroxy-4-oxo-4H-chromen-5-yl]carbonyl}oxy)acetyl]-L-glutamic acid]	21.8	6.7	–
Cn1cc(-c2coc3cc(O)c(O)c(C(=O)OCC(O)CO)c3c2=O)c(=O)c2cc(O)c(O)cc21 (stereo not shown) [Example 23, 2,3-Dihydroxypropyl 3-(6,7-dihydroxy-1-methyl-4-oxo-1,4-dihydroquinolin-3-yl)-6,7-dihydroxy-4-oxo-4H-chromene-5-carboxylate]	< 70	< 10	–
Cn1cc(-c2coc3cc(O)c(O)c(C(=O)OC[C@H]4CC[C@H](N)CC4)c3c2=O)c(=O)c2cc(O)c(O)cc21 [Example 24, (trans-4-Aminocyclohexyl)methyl 3-(6,7-dihydroxy-1-methyl-4-oxo-1,4-dihydroquinolin-3-yl)-6,7-dihydroxy-4-oxo-4H-chromene-5-carboxylate hydrochloride]	< 70	< 10	–
Cn1cc(-c2coc3cc(O)c(O)c(C(=O)OCC[C@H](N)C(=O)O)c3c2=O)c(=O)c2cc(O)c(O)cc21 [Example 27, O-{[3-(6,7-Dihydroxy-1-methyl-4-oxo-1,4-dihydroquinolin-3-yl)-6,7-dihydroxy-4-oxo-4H-chromen-5-yl]carbonyl}-L-homoserine hydrochloride]	< 10	< 10	–
Cn1cc(-c2coc3cc(O)c(O)c(C(=O)OCC(N)=O)c3c2=O)c(=O)c2cc(O)c(O)cc21 [Example 30, 2-Amino-2-oxoethyl 3-(6,7-dihydroxy-1-methyl-4-oxo-1,4-dihydroquinolin-3-yl)-6,7-dihydroxy-4-oxo-4H-chromene-5-carboxylate]	–	< 40	–
